Assay results published in patent publication US9663478B2, “Benzotriazine oxides as drugs targeting Mycobacterium tuberculosis” (priority 2011, dated 2017).
In brackets after ≈: the same amount, converted by molar mass.

Key:
Mtb H37Rv [1] = assay: TB MIC - ITR (UIC), Institute for Tuberculosis Research; assay type: cell-based, Mycobacterium tuberculosis; conditions: for TB MIC - UIC: Tables P1, P2; for MIC: Mycobacterium tuberculosis, H37RV, Tables 1-4, read-out: TB MIC - ITR
NRP Mtb H37Rv cells = assay: Low-oxygen recovery assay (LORA) MIC; assay type: cell-based, Mycobacterium tuberculosis; conditions: for LORA MIC: Tables P1, P2, non-replicating M. tuberculosis; for MIC: Mycobacterium tuberculosis, H37RV, NRP Mtb, Tables 1-4 and text, read-out: LORA MIC - ITR
in vitro = conditions: African green monkey, VERO Tox (CC50)
Mtb H37Rv [2] = assay: TB MIC - SRI, resazurin-based microplate assay; assay type: cell-based, Mycobacterium tuberculosis; conditions: Mycobacterium tuberculosis, H37RV, read-out: TB MIC - SRI
Vero cells = assay: Cytotoxicity against Vero cells (Cell Titer-Glo); conditions: 72 h; Tables 1-4 and text
H37Rv = assay: MIC H37Rv (Table E1, Additional BTO Activity Data); assay type: cell-based; conditions: Mycobacterium tuberculosis
INH-r = assay: MIC INH-r (Table E1); assay type: cell-based
RMP-R = assay: MIC RMP-R (Table E1); assay type: cell-based
OFX-R = assay: MIC OFX-R (Table E1); assay type: cell-based
[3] = MP MTT % viable (Table E1); conditions: MP (so in the source)

## CCCC(C)Nc1n[n+]([O-])c2ccccc2[n+]1[O-] (stereo not shown) [SRI-012258]
Mtb H37Rv [1]
  TB MIC - UIC: 1.95 µg/mL
NRP Mtb H37Rv cells
  LORA MIC: 0.99 µg/mL
In vitro
  CC50 at 72 h: 26.3 µg/mL (≈ 106 µM)

## O=C1CN(/N=C/c2ccc([N+](=O)[O-])o2)C(=O)N1 [Nitrofurantoin, reference compound]
Mtb H37Rv [2]; Tables 1-4 and text
  MIC: 16 µg/mL (≈ 67.2 µM)
Mtb H37Rv [1]
  MIC: 28 µg/mL (≈ 118 µM)
NRP Mtb H37Rv cells
  MIC: 32 µg/mL (≈ 134 µM)
Vero cells
  Vero Tox CC50: 23 µg/mL

## CCC(COC)Nc1n[n+]([O-])c2cc(Cl)ccc2[n+]1[O-] (stereo not shown) [Compound 15bi, 7-chloro-3-((1-methoxybutan-2-yl)amino)benzo[e][1,2,4]triazine 1,4-dioxide]
Mtb H37Rv [2]; Tables 1-4 and text
  MIC: 1.2 µg/mL (≈ 4.02 µM)
Mtb H37Rv [1]
  MIC: 1.4 µg/mL (≈ 4.69 µM)
NRP Mtb H37Rv cells
  MIC: 0.78 µg/mL (≈ 2.61 µM)
In vitro
  CC50 at 72 h: 2.6 µg/mL (≈ 8.7 µM)

## CC(Nc1n[n+]([O-])c2ccccc2[n+]1[O-])C(C)(C)C (stereo not shown) [SRI-012268]
Mtb H37Rv [2]; Tables P1-P3
  MIC: 5 µg/mL (≈ 19.1 µM)
Mtb H37Rv [1]
  TB MIC - UIC: 2.43 µg/mL
NRP Mtb H37Rv cells
  LORA MIC: 1 µg/mL
In vitro
  CC50 at 72 h: 20.2 µg/mL (≈ 77 µM)

## CC(C)C(C)Nc1n[n+]([O-])c2ccccc2[n+]1[O-] (stereo not shown) [SRI-012267]
Mtb H37Rv [2]; Tables P1-P3
  MIC: 5 µg/mL (≈ 20.1 µM)
Mtb H37Rv [1]
  TB MIC - UIC: 1.93 µg/mL
NRP Mtb H37Rv cells
  LORA MIC: 0.98 µg/mL
In vitro
  CC50 at 72 h: 21 µg/mL (≈ 84.6 µM)

## CCC(COC)Nc1n[n+]([O-])c2cc(F)ccc2[n+]1[O-] (stereo not shown) [Compound 15ai, 7-fluoro-3-((1-methoxybutan-2-yl)amino)benzo[e][1,2,4]triazine 1,4-dioxide]
Mtb H37Rv [2]; Tables 1-4 and text
  MIC: 5 µg/mL (≈ 17.7 µM)
Mtb H37Rv [1]
  MIC: 2 µg/mL (≈ 7.09 µM)
NRP Mtb H37Rv cells
  MIC: 1.9 µg/mL (≈ 6.73 µM)
In vitro
  CC50 at 72 h: 6.3 µg/mL (≈ 22.3 µM)

## [O-][n+]1nc(NC2(c3ccc(F)cc3)CC2)[n+]([O-])c2cc3c(cc21)CCC3 [Cmpd 7]
H37Rv
  MIC: 17.6 µg/mL (≈ 49.9 µM)

## COc1ccc(OC)c(C2CCN(c3n[n+]([O-])c4cc5c(cc4[n+]3[O-])CCC5)C2)c1 (stereo not shown) [Cmpd 16]
H37Rv
  MIC: 0.195 µg/mL (≈ 0.477 µM)
INH-r
  MIC: 0.098 µg/mL (≈ 0.24 µM)
RMP-R
  MIC: 0.195 µg/mL (≈ 0.477 µM)
OFX-R
  MIC: 0.098 µg/mL (≈ 0.24 µM)
[3]
  viability at 0.01 ug/ml: 122%
  viability at 0.1 ug/ml: 97%
  viability at 1 ug/ml: 108%

## CC1CC(Nc2n[n+]([O-])c3ccccc3[n+]2[O-])CC(C)(C)C1 (stereo not shown) [SRI-012270]
Mtb H37Rv [2]; Tables P1-P3
  MIC: 1.25 µg/mL (≈ 4.13 µM)
Mtb H37Rv [1]
  TB MIC - UIC: 0.57 µg/mL
NRP Mtb H37Rv cells
  LORA MIC: 0.39 µg/mL
In vitro
  CC50 at 72 h: 5.2 µg/mL (≈ 17.2 µM)

## CCC(COC)Nc1n[n+]([O-])c2ccccc2[n+]1[O-] (stereo not shown) [Compound 8i, 3-((1-methoxybutan-2-yl)amino)benzo[e][1,2,4]triazine 1,4-dioxide]
Mtb H37Rv [2]; Tables 1-4 and text
  MIC: 10 µg/mL (≈ 37.8 µM)
Mtb H37Rv [1]
  MIC: 6.6 µg/mL (≈ 25 µM)
NRP Mtb H37Rv cells
  MIC: 4.9 µg/mL (≈ 18.5 µM)
In vitro
  CC50 at 72 h: > 50 µg/mL

## C[C@@H](Nc1n[n+]([O-])c2ccccc2[n+]1[O-])C1CCCCC1 (racemic) [SRI-012261]
Mtb H37Rv [2]; Tables P1-P3
  MIC: 1.25 µg/mL (≈ 4.33 µM)
Mtb H37Rv [1]
  TB MIC - UIC: 0.92 µg/mL
NRP Mtb H37Rv cells
  LORA MIC: 0.36 µg/mL
In vitro
  CC50 at 72 h: 8.9 µg/mL (≈ 30.9 µM)

## CN(Cc1ccc(F)cc1)c1n[n+]([O-])c2cc3c(cc2[n+]1[O-])CCC3 [Cmpd 14]
H37Rv
  MIC: 0.195 µg/mL (≈ 0.573 µM)
INH-r
  MIC: 0.098 µg/mL (≈ 0.288 µM)
RMP-R
  MIC: 0.049 µg/mL (≈ 0.144 µM)
OFX-R
  MIC: 0.098 µg/mL (≈ 0.288 µM)
[3]
  viability at 0.01 ug/ml: 112%
  viability at 0.1 ug/ml: 82%
  viability at 1 ug/ml: 1%

## [O-][n+]1nc(N2CCC(c3ccccc3F)C2)[n+]([O-])c2cc3c(cc21)CCC3 (stereo not shown) [Cmpd 13]
H37Rv
  MIC: 0.098 µg/mL (≈ 0.267 µM)
INH-r
  MIC: 0.098 µg/mL (≈ 0.267 µM)
RMP-R
  MIC: 0.049 µg/mL (≈ 0.134 µM)
OFX-R
  MIC: 0.024 µg/mL (≈ 0.0655 µM)
[3]
  viability at 0.01 ug/ml: 161%
  viability at 0.1 ug/ml: 123%
  viability at 1 ug/ml: 102%

## COc1ccc(CN(C)c2n[n+]([O-])c3cc4c(cc3[n+]2[O-])CCC4)cc1 [Cmpd 12]
H37Rv
  MIC: 0.391 µg/mL (≈ 1.11 µM)
INH-r
  MIC: 0.098 µg/mL (≈ 0.278 µM)
RMP-R
  MIC: 0.098 µg/mL (≈ 0.278 µM)
OFX-R
  MIC: 0.195 µg/mL (≈ 0.553 µM)
[3]
  viability at 0.01 ug/ml: 121%
  viability at 0.1 ug/ml: 94%
  viability at 1 ug/ml: 88%

## Cc1ncc([N+](=O)[O-])n1CCO [Metronidazole, reference compound]
Mtb H37Rv [2]; Tables 1-4 and text
  MIC: > 10 µg/mL
Mtb H37Rv [1]
  MIC: > 32 µg/mL
NRP Mtb H37Rv cells
  MIC: 11 µg/mL (≈ 64.3 µM)
Vero cells
  Vero Tox CC50: >16 µg/mL

## [O-][n+]1nc(N2CCC(c3ccccc3Cl)C2)[n+]([O-])c2cc3c(cc21)CCC3 (stereo not shown) [Cmpd 15]
H37Rv
  MIC: 0.098 µg/mL (≈ 0.256 µM)
INH-r
  MIC: 0.098 µg/mL (≈ 0.256 µM)
RMP-R
  MIC: 0.098 µg/mL (≈ 0.256 µM)
OFX-R
  MIC: 0.024 µg/mL (≈ 0.0627 µM)
[3]
  viability at 0.01 ug/ml: 102%
  viability at 0.1 ug/ml: 75%
  viability at 1 ug/ml: 58%

## COc1cccc(C2CCN(c3n[n+]([O-])c4cc5c(cc4[n+]3[O-])CCC5)C2)c1OC (stereo not shown) [Cmpd 18]
H37Rv
  MIC: 0.391 µg/mL (≈ 0.957 µM)
INH-r
  MIC: 0.195 µg/mL (≈ 0.477 µM)
RMP-R
  MIC: 0.391 µg/mL (≈ 0.957 µM)
OFX-R
  MIC: 0.049 µg/mL (≈ 0.12 µM)
[3]
  viability at 0.01 ug/ml: 85%
  viability at 0.1 ug/ml: 55%
  viability at 1 ug/ml: 33%

## O=C(Cn1ccnc1[N+](=O)[O-])NCCO [Etanidazole, reference compound]
Mtb H37Rv [2]; Tables 1-4 and text
  MIC: > 10 µg/mL
Mtb H37Rv [1]
  MIC: > 32 µg/mL
NRP Mtb H37Rv cells
  MIC: 26 µg/mL (≈ 121 µM)
Vero cells
  Vero Tox CC50: >16 µg/mL

## CCC(COC)Nc1n[n+]([O-])c2ccccc2[n+]1[O-] (stereo not shown) [SRI-012272]
Mtb H37Rv [2]; Tables P1-P3
  MIC: 10 µg/mL (≈ 37.8 µM)
Mtb H37Rv [1]
  TB MIC - UIC: 6.57 µg/mL
NRP Mtb H37Rv cells
  LORA MIC: 4.87 µg/mL
In vitro
  CC50 at 72 h: 50 µg/mL (≈ 189 µM)

## CCNc1n[n+]([O-])c2c(Cl)c(OC)ccc2[n+]1[O-] [Cmpd 6]
H37Rv
  MIC: 0.4 µg/mL (≈ 1.48 µM)

## [O-][n+]1nc(NC2CCCCC2)[n+]([O-])c2ccccc21 [SRI-012266]
Mtb H37Rv [1]
  TB MIC - UIC: 3.77 µg/mL
NRP Mtb H37Rv cells
  LORA MIC: 0.75 µg/mL
In vitro
  CC50 at 72 h: 8.9 µg/mL (≈ 34.2 µM)
